From patent publication US20220002272A1, “BISARYL LACTAMS AS NRF2 ACTIVATORS” (GLAXOSMITHKLINE INTELLECTUAL PROPERTY DEVELOPMENT LIMITED, priority 2016, published 2022)
Structures can show the parent of a compound that is named as a salt.

These molecules were tested on NQ01 specific enzyme activity in BEAS-2B cells (marker for Nrf2 activation) (assay: BEAS-2B NQ01 MTT Assay). Conditions: Homo sapiens; NQ01 specific activity induction in BEAS-2B cells, 48 hours incubation with compound.
Assay type: cell-based
Description: NAD(P)H:quinone oxidoreductase 1 (NQ01), also called DT diaphorase, is a homodimeric FAD-containing enzyme that catalyzes obligatory NAD(P)H-dependent two-electron reductions of quinones and protects cells against the toxic and neoplastic effects of free radicals and reactive oxygen species arising from one-electron reductions. The transcription of NQ01 is finely regulated by Nrf2, and thus NQ01 activity is a good marker for Nrf2 activation. On day one, frozen BEAS-2B cells (ATCC) are thawed in a water bath, counted, and re-suspended at a concentration of 250,000 cells/mL. Fifty microliters of cells are plated in 384 well black clear-bottomed plates. Plates are incubated at 37° C., 5% CO2 overnight. On day two, plates are centrifuged and 50 nL of compound or controls are added to the cells. Plates are then incubated at 37° C., 5% CO2 for 48 hours. On day four, medium is aspirated from the plate and crude cell lysates are made by adding 13 uL of 1× Cell Signaling Technologies lysis buffer with 1 Complete, Mini, EDTA-free Protease Inhibitor Tablet (Roche) for each 10 mL of lysis buffer. After lysis plates are incubated for 20 minutes at room temperature. Two microliters of lysate are removed for use in Cell Titer Glo assay (Promega) and MTT cocktail is prepared (Prochaska et. al. 1998) for measurement of NQ01 activity. Fifty microliters of MTT cocktail is added to each well, plate is centrifuged, and analyzed on an Envision plate reader (Perkin Elmer) using Absorbance 570 nm label for 30 minutes. Product formation is measured kinetically and the pEC50 of NQ01 specific activity induction is calculated by plotting the change in absorbance (Delta OD/min) versus the log of compound concentration followed by 3-parameter fitting.
pEC50 is the negative log of the EC50.
EC50s<1 nM (+++++), EC50s 10 nM-1 nM (++++), EC50s 10-100 nM (+++), EC50s 100 nM-1 μM (++), EC50s 1-10 μM (+).
In the case of Cc1c([C@H](c2ccc3c(c2)[C@H](N2CC(=O)N(C)CC(C)(C)C2)CC3)C(C)(C)C(=O)O)ccc2c1nnn2C (relative stereo) [Example 10, rel-3S-(1,4-Dimethyl-1H-benzo[d][1,2,3]triazol-5-yl)-2,2-dimethyl-3-(rel-(R)-3-(4,6,6-trimethyl-3-oxo-1,4-diazepan-1-yl)-2,3-dihydro-1H-inden-5-yl)propanoic acid], the EC50 is reported as < 1 nM. Molecule Cc1c([C@H](c2ccc3c(c2)[C@@H](N2CC(=O)N(C)CC(C)(C)C2)CC3)C(C)(C)C(=O)O)ccc2c1nnn2C (relative stereo) [Example 11, rel-3S-(1,4-Dimethyl-1H-benzo[d][1,2,3]triazol-5-yl)-2,2-dimethyl-3-(rel-(S)-3-(4,6,6-trimethyl-3-oxo-1,4-diazepan-1-yl)-2,3-dihydro-1H-inden-5-yl)propanoic acid] has an EC50 of 1 to 10 nM. In the case of Cc1c(C(c2ccc3c(c2)C(N2CC(=O)N(C)CC(C)(C)C2)CC3)C(C)(C)C(=O)O)ccc2c1nnn2C (single isomer, unassigned) [Example 12], the EC50 is reported as 10 to 100 nM. With Cc1ccc([C@@H](c2ccc3c(nnn3C)c2C)C(C)(C)C(=O)O)cc1CN1CC(=O)N(C2CC2)CC(C)(C)C1 [Example 1] the EC50 was 1 to 10 nM. Molecule CCCN1CC(C)(C)CN(Cc2cc([C@@H](c3ccc4c(nnn4C)c3C)C(C)(C)C(=O)O)ccc2C)CC1=O [Example 2] has an EC50 of 1 to 10 nM. In the case of Cc1ccc([C@@H](c2ccc3c(nnn3C)c2C)C(C)(C)C(=O)O)cc1CN1CCCN(C)C(=O)C1 [Example 3, (S)-3-(1,4-Dimethyl-1H-benzo[d][1,2,3]triazol-5-yl)-2,2-dimethyl-3-(4-methyl-3-((4-methyl-3-oxo-1,4-diazepan-1-yl)methyl)phenyl)propanoic acid], the EC50 is reported as 100 to 1000 nM. CCN1CC(C)(C)CN(Cc2cc([C@@H](c3ccc4c(nnn4C)c3C)C(C)(C)C(=O)O)ccc2C)CC1=O [Example 4] was tested, and the EC50 was 1 to 10 nM. CCC1CN(Cc2cc(C(c3ccc4c(nnn4C)c3C)C(C)(C)C(=O)O)ccc2C)CC(=O)N(C)C1 (stereo not shown) [Example 5, 3-(1,4-Dimethyl-1H-benzo[d][1,2,3]triazol-5-yl)-3-(3-((6-ethyl-4-methyl-3-oxo-1,4-diazepan-1-yl)methyl)-4-methylphenyl)-2,2-dimethylpropanoic acid] showed an EC50 of 1 to 10 nM. With Cc1ccc([C@@H](c2ccc3c(nnn3C)c2C)C(C)(C)C(=O)O)cc1CN1CC(=O)N(C)CC(C)(C)C1 [Example 6, (S)-3-(1,4-Dimethyl-1H-benzo[d][1,2,3]triazol-5-yl)-2,2-dimethyl-3-(4-methyl-3-((4,6,6-trimethyl-3-oxo-1,4-diazepan-1-yl)methyl)phenyl)propanoic acid, 0.3Formic acid salt] the EC50 was 1 to 10 nM. Cc1ccc(C(c2ccc3c(nnn3C)c2C)C(C)(C)C(=O)O)cc1CN1CC(=O)N(C)CC(C)(C)C1 (stereo not shown) [Example 7, 3-(1,4-Dimethyl-1H-benzo[d][1,2,3]triazol-5-yl)-2,2-dimethyl-3-(4-methyl-3-((4,6,6-trimethyl-3-oxo-1,4-diazepan-1-yl)methyl)phenyl)propanoic acid] gave an EC50 of 1 to 10 nM. Cc1ccc(C(c2ccc3c(nnn3C)c2C)C(C)(C)C(=O)O)cc1CN1CC(=O)N(C2CCC2)CC(C)(C)C1 (stereo not shown) [Example 8, 3-(3-((4-Cyclobutyl-6,6-dimethyl-3-oxo-1,4-diazepan-1-yl)methyl)-4-methylphenyl)-3-(1,4-dimethyl-1H-benzo[d][1,2,3]triazol-5-yl)-2,2-dimethylpropanoic acid] showed an EC50 of 1 to 10 nM. Molecule Cc1ccc(C(c2ccc3c(nnn3C)c2C)C(C)(C)C(=O)O)cc1CN1CC(=O)N(CC2CC2)CC(C)(C)C1 (stereo not shown) [Example 9, 3-(3-((4-(Cyclopropylmethyl)-6,6-dimethyl-3-oxo-1,4-diazepan-1-yl)methyl)-4-methylphenyl)-3-(1,4-dimethyl-1H-benzo[d][1,2,3]triazol-5-yl)-2,2-dimethylpropanoic acid] has an EC50 of 10 to 100 nM. Cc1c(C(c2ccc3c(c2)C(N2CC(=O)N(C)CC(C)(C)C2)CC3)C(C)(C)C(=O)O)ccc2c1nnn2C (stereo not shown) [Example 13, 3-(1,4-Dimethyl-1H-benzo[d][1,2,3]triazol-5-yl)-2,2-dimethyl-3-(3-(4,6,6-trimethyl-3-oxo-1,4-diazepan-1-yl)-2,3-dihydro-1H-inden-5-yl)propanoic acid] showed an EC50 of 100 to 1000 nM. Molecule CCn1cc(COC(c2ccc(C)c(CN3CC(=O)N(C)CC(C)(C)C3)c2)C(C)(C)C(=O)O)nn1 (stereo not shown) [Example 14, 3-((1-Ethyl-1H-1,2,3-triazol-4-yl)methoxy)-2,2-dimethyl-3-(4-methyl-3-((4,6,6-trimethyl-3-oxo-1,4-diazepan-1-yl)methyl)phenyl)propanoic acid] has an EC50 of 100 to 1000 nM. In the case of CCCN1CC(C)(C)CN(Cc2cc(C(CCc3cn(CC)nn3)C(C)(C)C(=O)O)ccc2Cl)CC1=O (stereo not shown) [Example 15, 3-(4-Chloro-3-((6,6-dimethyl-3-oxo-4-propyl-1,4-diazepan-1-yl)methyl)phenyl)-5-(1-ethyl-1H-1,2,3-triazol-4-yl)-2,2-dimethylpentanoic acid], the EC50 is reported as 10 to 100 nM. In the case of CCn1cc(CCC(c2ccc(Cl)c(CN3CC(=O)N(C)CC(C)(C)C3)c2)C(C)(C)C(=O)O)nn1 (stereo not shown) [Example 16, 3-(4-Chloro-3-((4,6,6-trimethyl-3-oxo-1,4-diazepan-1-yl)methyl)phenyl)-5-(1-ethyl-1H-1,2,3-triazol-4-yl)-2,2-dimethylpentanoic acid], the EC50 is reported as < 1 nM.
